Reference: PubChem BioAssay AID540252 (Sanford-Burnham Center for Chemical Genomics, 2011)
The source made the active and inactive calls. No rule for the calls is given here.

Target: glucose-6-phosphate dehydrogenase-6-phosphogluconolactonase (Plasmodium falciparum 3D7)
Experiment: PfG6PD enzyme inhibitors, direct NADPH readout, dose response, orthogonal assay, biochemical, end-point NADPH detection (AID 540252)
Details: purified PfG6PD enzyme

Structure (SMILES)	IC50
CC1=C(O)C(=O)C=C2C1=CC=C1C2(C)CCC2(C)C3CC(C)(C(=O)O)CCC3(C)CCC12C (stereo not drawn)	> 80 µM (inactive)
O=C(CCl)NCCN1C(=O)S/C(=C\c2cccnc2)C1=O	> 80 µM (inactive)
O=C(COC(=O)c1cnccn1)c1ccc([N+](=O)[O-])cc1	54.9 µM
Cc1cc(O)c(-c2cc(O)c(C)cc2O)cc1O	> 80 µM (inactive)
COc1cc(CNc2ccc3[nH]c(=O)[nH]c3c2)ccc1OCc1ccccc1	> 80 µM (inactive)
CCC(C)(C)c1nnc(NC(=O)C2CCN(C(=O)c3ccco3)CC2)s1	> 80 µM (inactive)
Cc1ccc(NNS(=O)(=O)c2ccc(C)cc2)cc1	> 80 µM (inactive)
CCN1CCCC1CNC(=O)c1ccc2c(c1)NC(=O)/C(=C\c1ccc(C)cc1)S2 (stereo not drawn)	> 80 µM (inactive)
CCC(CO)[n+]1c(C)cc(/C=C2\Sc3ccccc3N2Cc2ccccc2)cc1C (stereo not drawn)	> 80 µM (inactive)
COc1ccc(CNC(=O)Cc2cn(C)c3ccccc23)c(OC)c1	> 80 µM (inactive)
CN1CC[C@@]2(C)c3cc(O)ccc3N(C)[C@@H]12	> 80 µM (inactive)
O=c1c2cc(F)ccc2sn1-c1ccc(F)cc1	25.5 µM
COc1cc(-c2cc(=O)c3c(O)c(OC)c(OC)c(O)c3o2)ccc1O	> 80 µM (inactive)
Cc1ccc(NC(=O)Cn2sc3nc(C)cc(C)c3c2=O)c(Cl)c1	> 80 µM (inactive)
C=C1C(=O)O[C@@H]2C[C@@H](C)[C@@H]3C=CC(=O)[C@@]3(C)[C@@H](OC(=O)CC(=O)O[C@H]3[C@@H]4C(=C)C(=O)O[C@@H]4C[C@@H](C)[C@@H]4C=CC(=O)[C@]43C)[C@H]12	> 80 µM (inactive)
NNC(=O)CN1C(c2ccccc2Br)=Nc2ccc(Br)cc2C1c1ccccc1 (stereo not drawn)	> 80 µM (inactive)
CC(C)Sc1nnc(NC(=O)c2ccc3c(c2)OCO3)s1	> 80 µM (inactive)
O=S(=O)(Nc1cc(Sc2cccc3cccnc23)c(O)c2ccccc12)c1ccc(F)cc1	> 80 µM (inactive)
COc1cccc(CNc2ccc3[nH]c(=O)[nH]c3c2)c1OCc1ccc(F)cc1	> 80 µM (inactive)
NC(=O)N/N=C/c1ccc(-n2nncc2-c2ccc(Cl)cc2)cc1	> 80 µM (inactive)
Cc1ccc(S(=O)(=O)NNc2ccccc2)cc1	37.9 µM
O=C(CNC(=O)c1ccccc1)NCC(=O)OCC(=O)c1ccc([N+](=O)[O-])cc1	59.6 µM
Cc1cccc(C(=O)Nc2sc3c(c2C(=O)O)CCCC3)c1	> 80 µM (inactive)
O=C1C=CC(=O)N1c1ccc(-c2nc3ccccc3o2)cc1	> 80 µM (inactive)
CC(=O)Nc1cc2c(cc1[N+](=O)[O-])-c1ccccc1C2O (stereo not drawn)	74.5 µM

Structure (SMILES)	IC50
COc1ccc(C(=O)ON=C2C=C(C)C(=O)C(C)=C2)cc1	> 80 µM (inactive)
O=C(COc1cccc2ccccc12)Nc1ccc(Cl)cc1C(=O)O	> 80 µM (inactive)
O=C(Nc1ccccn1)c1sc2cc([N+](=O)[O-])ccc2c1Cl	> 80 µM (inactive)
O=C(CSc1nc2ccccc2[nH]1)NC1CCCc2ccccc21 (stereo not drawn)	> 80 µM (inactive)
Brc1cc2[nH]cnc2c2ccccc12	> 80 µM (inactive)
CC(=O)Nc1ccc2sn(-c3ccccc3)c(=O)c2c1	18.2 µM
CN1/C(=C\C(=O)c2cccs2)Sc2ccccc21	> 80 µM (inactive)
Cc1c(N=C2C=C(Br)C(=O)C(Br)=C2)c(=O)n(-c2ccccc2)n1C	> 80 µM (inactive)
COc1cc(CNc2ccc(N3CCCC3)cc2)ccc1OCc1ccccc1F	> 80 µM (inactive)
Cn1c(=O)c2c([nH]c(=S)n2CCCc2ccccc2)n(C)c1=O	> 80 µM (inactive)
COc1cc(C(=O)O/N=C2\C=CC(=O)C=C2C)cc(OC)c1OC	> 80 µM (inactive)
O=c1[nH]c(NCCO)c(N=Cc2ccccc2)c(=O)[nH]1	> 80 µM (inactive)
CC1COCC(C)N1C1=C(Cl)C(=O)c2ccccc2C1=O (stereo not drawn)	> 80 µM (inactive)
COc1cccc(C(=O)Nc2nnc(S(=O)(=O)N(C)Cc3ccccc3)s2)c1	> 80 µM (inactive)
CC1(C)Nc2ccc(O)cc2-c2c1ssc2=S	> 80 µM (inactive)
CCCCOc1ccc(Cc2n[nH]c(=S)n2N)cc1	> 80 µM (inactive)
Cc1ccc(C(=O)/C=C/C(=O)c2ccc(C)cc2)cc1	42 µM
COc1cccc(C=Nc2cc(C(C)C)c(O)cc2C)c1O	> 80 µM (inactive)
Nc1c(C(=O)Nc2ccc(F)cc2)sc(=S)n1-c1ccccc1F	> 80 µM (inactive)
CCC(=O)OCOc1ccc(/C=C2/CCC(CN(C)C)C2=O)cc1 (stereo not drawn)	> 80 µM (inactive)
O=S(=O)(NCc1csc(-c2ccccc2)n1)c1ccc(Cl)s1	> 80 µM (inactive)
Cc1nc(COC(=O)c2cc(O)c3ccccc3c2O)cs1	> 80 µM (inactive)
Oc1ccc(NCc2ccccc2OCc2ccccc2)cc1	> 80 µM (inactive)
COC(=O)C1=C(C(=O)OC)SC2(S1)C(C(=O)OC)=C(C(=O)OC)Sc1c2ssc1=O	> 80 µM (inactive)
CCc1ccc(OCC(=O)N/N=C/c2cc([N+](=O)[O-])ccc2N2CCOCC2)cc1	> 80 µM (inactive)

Structure (SMILES)	IC50
O=C(COc1ccccc1F)OCC(=O)c1ccc([N+](=O)[O-])cc1	44.6 µM
N#Cc1c(C#N)c(SSc2c(C#N)c(C#N)c(N)n2-c2ccccc2)n(-c2ccccc2)c1N	> 80 µM (inactive)
C=CCN=c1scc(-c2ccco2)n1/N=C/c1ccc(O)c(O)c1O	> 80 µM (inactive)
COc1ccccc1N1C(=O)C=C(Sc2nc(C)cc(C)n2)C1=O	> 80 µM (inactive)
COc1cc(N)c2ncccc2c1Cl	> 80 µM (inactive)
CC(=O)Nc1ccc(S(=O)(=O)/N=C2\C(=O)c3ccccc3C([O-])=C2n2cc[n+](-c3ccccn3)c2)cc1	> 80 µM (inactive)
COc1cccc(/C=N/NC(=O)c2c(C)nc3ccc(Br)cn23)c1	> 80 µM (inactive)
CN(C)c1nc(=NCc2cccs2)ss1	> 80 µM (inactive)
C=CCOc1c(Cl)cc(CNc2ccc3[nH]c(=O)[nH]c3c2)cc1OC	> 80 µM (inactive)
CCN(CC)C(=O)c1c(C)[nH]c(=S)c(C#N)c1-c1ccco1	> 80 µM (inactive)
Nc1ccc2c3c(cccc13)-c1ccccc1-2	> 80 µM (inactive)
O=c1c2ccccc2sn1-c1cccc(Cl)c1	13.7 µM
Clc1ccc2nc(-c3ccc(Br)s3)cn2c1	> 80 µM (inactive)
O=c1c2ccccc2sn1-c1ccc(S(=O)(=O)N2CCCCC2)cc1	> 80 µM (inactive)
Clc1nssc1=Nc1nncs1	35.6 µM
COc1ccc(CCn2c(NN)nc3c2c(=O)[nH]c(=O)n3C)cc1	> 80 µM (inactive)
Oc1ccc(-c2cn3c(n2)SCC3)cc1O	> 80 µM (inactive)
Cc1ccccc1OCC(=O)N/N=C/c1ccc(Sc2nc3ccccc3s2)o1	> 80 µM (inactive)
O=C1C(=Cc2cccc(O)c2O)SC(=S)N1CCCN1CCOCC1	44.3 µM
COc1ccc(NC(C)C(=O)N/N=C/c2cc(Br)ccc2OC)cc1 (stereo not drawn)	> 80 µM (inactive)
Cc1c(C(=O)N(Cc2ccccc2Cl)C2CCS(=O)(=O)C2)oc2ccccc12 (stereo not drawn)	> 80 µM (inactive)
Cc1cc(C)c2c(=N)c3ccccc3n(CCCCCCCCn3c4ccccc4c(=N)c4c(C)cc(C)nc43)c2n1	> 80 µM (inactive)
Nn1c(SCC(=O)Nc2cccnc2Cl)nnc1-c1ccccc1	> 80 µM (inactive)
